Laboratory results published in US12209081B2 (Katholieke Universiteit Leuven, priority 2020, dated 2025).
Counter-ions that a name gives are not always drawn. One block for each compound: values may come before it.

What was measured:
TRPM3 [1] = conditions: rat pain model; Chen L et al. 2014; cited from earlier work
[2] = biological target: mouse TRPM3α2 (mTRPM3) ion channel (Mus musculus (Mouse), UniProt J9SQF3); test: TRPM3 ion channel driven Ca2+ uptake, Fluo-4 AM assay, mTRPM3alpha2 overexpressing flip-in HEK293 cells stimulated with pregnenolone sulfate; assay type: cell-based; conditions: PS (50 μM) stimulated
Method in brief: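 Read-out is Ca2+ influx via Fluo-4 AM fluorescence at 485/535 nm, taken right after seeding ~2000 cells/well onto compound with 50 μM PS. Inhibition computed from RFU between vehicle-stimulated and positive-control-inhibitor wells; cells were mTRPM3α2-overexpressing flip-in HEK293.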

TRPM3 [3] = biological target: TRPM3 (Homo sapiens (Human), UniProt Q9HCF6); conditions: Wagner et al., 2008; cited from earlier work
TRPM3 [4] = conditions: wild type mice vs knock-out TRPM3 mice; cited from earlier work

Sequence of mouse TRPM3α2 (mTRPM3) ion channel (J9SQF3 other isoform, or with tags, fused parts or gaps): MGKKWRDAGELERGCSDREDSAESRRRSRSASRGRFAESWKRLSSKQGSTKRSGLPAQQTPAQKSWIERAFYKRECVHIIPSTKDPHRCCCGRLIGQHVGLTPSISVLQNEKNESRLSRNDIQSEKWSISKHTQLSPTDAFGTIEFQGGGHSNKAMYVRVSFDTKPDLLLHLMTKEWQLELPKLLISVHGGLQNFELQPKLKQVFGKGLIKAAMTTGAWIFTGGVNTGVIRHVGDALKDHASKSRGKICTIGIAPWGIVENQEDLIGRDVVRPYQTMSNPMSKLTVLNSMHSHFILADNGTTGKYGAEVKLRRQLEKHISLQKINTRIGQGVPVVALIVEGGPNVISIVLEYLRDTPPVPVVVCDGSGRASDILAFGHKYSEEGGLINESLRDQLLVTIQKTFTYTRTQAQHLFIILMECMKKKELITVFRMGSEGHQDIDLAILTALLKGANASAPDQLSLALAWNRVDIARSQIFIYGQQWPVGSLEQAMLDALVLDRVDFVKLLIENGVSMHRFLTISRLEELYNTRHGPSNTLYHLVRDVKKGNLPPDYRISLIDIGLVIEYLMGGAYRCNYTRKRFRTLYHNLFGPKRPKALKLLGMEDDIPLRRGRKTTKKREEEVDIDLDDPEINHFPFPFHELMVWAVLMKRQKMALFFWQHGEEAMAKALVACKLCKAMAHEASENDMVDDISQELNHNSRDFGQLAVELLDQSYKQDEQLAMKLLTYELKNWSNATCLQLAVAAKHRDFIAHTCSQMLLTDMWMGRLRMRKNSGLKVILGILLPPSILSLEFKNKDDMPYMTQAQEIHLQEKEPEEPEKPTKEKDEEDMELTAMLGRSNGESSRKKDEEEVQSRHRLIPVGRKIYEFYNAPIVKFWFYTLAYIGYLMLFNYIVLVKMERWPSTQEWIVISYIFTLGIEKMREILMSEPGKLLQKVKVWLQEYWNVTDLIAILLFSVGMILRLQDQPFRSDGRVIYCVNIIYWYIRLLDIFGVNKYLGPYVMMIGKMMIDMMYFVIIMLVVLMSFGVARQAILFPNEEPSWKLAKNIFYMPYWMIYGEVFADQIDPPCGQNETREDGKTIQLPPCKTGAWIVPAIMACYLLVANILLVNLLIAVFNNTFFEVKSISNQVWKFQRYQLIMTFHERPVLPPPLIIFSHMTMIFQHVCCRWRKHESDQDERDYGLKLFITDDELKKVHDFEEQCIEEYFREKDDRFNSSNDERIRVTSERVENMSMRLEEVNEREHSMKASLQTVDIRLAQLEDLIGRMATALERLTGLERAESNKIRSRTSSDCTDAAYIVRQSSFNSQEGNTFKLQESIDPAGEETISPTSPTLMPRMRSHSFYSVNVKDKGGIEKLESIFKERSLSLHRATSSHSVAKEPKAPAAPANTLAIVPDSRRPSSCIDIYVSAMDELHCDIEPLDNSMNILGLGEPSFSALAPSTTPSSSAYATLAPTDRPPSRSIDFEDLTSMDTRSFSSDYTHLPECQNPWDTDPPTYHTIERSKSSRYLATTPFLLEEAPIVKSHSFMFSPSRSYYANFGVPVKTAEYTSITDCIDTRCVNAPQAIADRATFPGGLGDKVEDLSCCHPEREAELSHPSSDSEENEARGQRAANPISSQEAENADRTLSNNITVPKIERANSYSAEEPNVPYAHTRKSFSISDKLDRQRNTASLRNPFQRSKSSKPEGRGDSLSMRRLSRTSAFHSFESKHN
Sequence of TRPM3 (Homo sapiens (Human), UniProt Q9HCF6) (Q9HCF6 whole entry, species assumed): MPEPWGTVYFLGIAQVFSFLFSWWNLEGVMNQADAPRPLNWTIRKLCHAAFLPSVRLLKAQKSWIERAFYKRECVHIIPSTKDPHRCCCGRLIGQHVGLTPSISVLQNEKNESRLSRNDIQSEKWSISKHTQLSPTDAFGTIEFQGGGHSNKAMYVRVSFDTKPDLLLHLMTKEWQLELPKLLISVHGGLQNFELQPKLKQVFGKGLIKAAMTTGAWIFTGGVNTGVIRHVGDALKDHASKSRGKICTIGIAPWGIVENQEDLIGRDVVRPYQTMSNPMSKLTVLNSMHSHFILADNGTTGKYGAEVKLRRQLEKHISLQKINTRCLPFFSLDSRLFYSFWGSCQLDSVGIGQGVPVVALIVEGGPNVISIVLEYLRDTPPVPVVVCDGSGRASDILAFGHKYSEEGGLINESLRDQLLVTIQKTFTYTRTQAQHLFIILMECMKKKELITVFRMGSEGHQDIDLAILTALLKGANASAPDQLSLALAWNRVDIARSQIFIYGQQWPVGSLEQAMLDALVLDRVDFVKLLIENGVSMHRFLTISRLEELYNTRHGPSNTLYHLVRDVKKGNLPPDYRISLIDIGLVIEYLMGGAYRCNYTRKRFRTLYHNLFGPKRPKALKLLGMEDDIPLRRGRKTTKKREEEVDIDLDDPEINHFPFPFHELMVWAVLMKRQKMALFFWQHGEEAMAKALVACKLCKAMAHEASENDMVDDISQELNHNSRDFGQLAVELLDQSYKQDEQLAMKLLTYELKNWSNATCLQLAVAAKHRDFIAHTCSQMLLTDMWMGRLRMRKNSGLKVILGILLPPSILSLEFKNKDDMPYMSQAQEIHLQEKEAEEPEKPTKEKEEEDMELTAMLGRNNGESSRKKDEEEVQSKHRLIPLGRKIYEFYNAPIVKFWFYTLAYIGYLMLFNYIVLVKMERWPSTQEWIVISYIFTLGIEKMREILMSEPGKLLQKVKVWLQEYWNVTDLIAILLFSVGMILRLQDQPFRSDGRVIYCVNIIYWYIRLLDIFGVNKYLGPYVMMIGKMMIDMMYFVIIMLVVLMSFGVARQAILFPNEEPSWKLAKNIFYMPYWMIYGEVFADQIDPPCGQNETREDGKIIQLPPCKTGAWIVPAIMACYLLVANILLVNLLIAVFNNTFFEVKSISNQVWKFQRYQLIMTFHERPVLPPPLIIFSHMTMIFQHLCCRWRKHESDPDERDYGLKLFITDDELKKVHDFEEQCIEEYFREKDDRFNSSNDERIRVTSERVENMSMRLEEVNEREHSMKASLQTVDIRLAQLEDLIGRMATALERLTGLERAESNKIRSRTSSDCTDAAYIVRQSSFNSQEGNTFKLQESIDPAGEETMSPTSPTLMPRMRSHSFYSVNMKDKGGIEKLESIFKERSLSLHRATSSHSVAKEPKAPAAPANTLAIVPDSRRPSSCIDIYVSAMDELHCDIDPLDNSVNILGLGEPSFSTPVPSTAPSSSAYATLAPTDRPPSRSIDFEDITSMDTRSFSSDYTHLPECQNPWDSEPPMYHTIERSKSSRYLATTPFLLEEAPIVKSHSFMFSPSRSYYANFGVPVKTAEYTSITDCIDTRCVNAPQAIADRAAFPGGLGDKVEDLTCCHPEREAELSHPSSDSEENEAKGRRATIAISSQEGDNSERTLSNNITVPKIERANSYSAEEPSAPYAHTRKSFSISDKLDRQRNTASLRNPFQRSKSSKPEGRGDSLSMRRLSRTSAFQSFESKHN

SMILES: O=C1C[C@@H](c2ccc(O)cc2)Oc2cc(O)ccc21 [Liquiritigenin]
mechanical and cold hyperalgesia (TRPM3 [1]): decrease mechanical and cold hyperalgesia

IC50 ([2]; cpds. 667-751): < 1000 nM
SMILES: Cc1ncc(COc2ccc3oc(C4CC4)c(C(=O)N[C@@H](CO)C(N)=O)c3c2)s1 [compound 749, (S)-N-(1-Amino-3-hydroxy-1-oxopropan-2-yl)-2-cyclopropyl-5-((2-methylthiazol-5-yl)methoxy)benzofuran-3-carboxamide]

IC50 ([2]; cpds. 667-751): < 1000 nM
SMILES: Cc1ccc(COc2ccc3oc(C4CC4)c(C(=O)N[C@@H](CO)C(N)=O)c3c2)cn1 [compound 750, (S)-N-(1-Amino-3-hydroxy-1-oxopropan-2-yl)-2-cyclopropyl-5-((6-methylpyridin-3-yl)methoxy)benzofuran-3-carboxamide]

IC50 ([2]; cpds. 667-751): < 1000 nM
SMILES: Cc1ncc(COc2ccc3oc(C4CC4)c(C(=O)N[C@@H](CO)C(N)=O)c3c2)o1 [compound 751, (S)-N-(1-amino-3-hydroxy-1-oxopropan-2-yl)-2-cyclopropyl-5-((2-methyloxazol-5-yl)methoxy) benzofuran-3-carboxamide]

IC50 ([2]; cpds. 608-666): < 1000 nM
SMILES: Cc1ncsc1C(C)Oc1ccc2oc(C)c(C(=O)NC3(CO)CCOCC3)c2c1 (stereo not shown) [cpd 623-En 1]

SMILES: CC(=O)C1CCC2C3CC=C4CC(OS(=O)(=O)O)CCC4(C)C3CCC12C (stereo not shown) [pregnenolone sulfate, Pregnenolone sulfate]
activator of TRPM3 (TRPM3 [3]): potent known activator of TRPM3
evoked pain (TRPM3 [4]): evoked pain in wild type mice but not in knock-out TRPM3 mice
